Measurements reported in US20210113598A1, “Combination of MIDH1 Inhibitors and DNA Hypomethylating Agents (HMA)” (Deutsches Krebsforschungszentrum (DKFZ) Stiftung des …, priority 2017, published 2021).

How the values were obtained:
[1] = test system: human IDH1 mutated AML cells; assay: Clonogenic progenitor (colony formation) assay, IDH1 mutated AML patient cells; format: cell-based; conditions: Compound A1 alone
Method: (§1) Colony-forming cell (CFC) units were assayed in methylcellulose (Methocult H4100; StemCell Technologies Inc.) supplemented with 10 ng/mL IL3, 10 ng/mL GM-CSF, 50 ng/mL SCF, 50 ng/mL FLT3-ligand and 3 U/mL EPO (PeproTech). […] of Compound A1 was added in combination with increasing concentrations of Azacytidine to methylcellulose containing 10exp5 human mononuclear cells and were plated in duplicate. Colonies were evaluated microscopically 10 to 14 days after plating by standard criteria. Graphs was plotted as proportion of colonies relative to vehicle treated cells.

IDH1 wildtype AML cells = assay: Clonogenic progenitor (colony formation) assay, IDH1 wildtype AML patient cells; format: cell-based, human; conditions: Compound A1 alone
Method: as §1

human IDH1 mutated AML [2] = conditions: background statement, oral; cited from earlier work
human IDH1 mutated AML [3] = assay: Transplantation and treatment of mice (PDX model of IDH1 mutated AML); conditions: for leukemic cells in peripheral blood: monotherapy, week 4 until end of treatment at week 12, Compound A1 150 mg/kg p.o. once daily, azacitidine 1 mg/kg s.c. days 1-5
Method: Leukemic cells from an AML patient with mutated DH1, NPM1, FLT3-TKD and NRAS were xenografted in immunocompromised mice. One million patient-derived AML cells collected from bone marrow and spleen of leukemic mice were injected intravenously in the tail vein of sublethally (3 Gy) irradiated NSG mice. […] The proportion of leukemic cells in peripheral blood of mice was measured with a human-specific CD45 antibody by tail vein bleeds and FACS analysis. The control groups were treated with either vehicle, Compound A1 150 mg/kg once daily p.o. continuously, or azacitidine 1 mg/kg once daily s.c. days 1-5, repeated once after 28 days. The test groups were treated with Compound A1 and azacitidine in the doses mentioned above either starting both drugs on day 1 (parallel group) or starting azacitidine on day 1 but Compound A1 on day 6 (sequential group).

C[C@H]1C[C@@H](n2c(Nc3ccc(OC(F)(F)F)cc3)nc3cc(CCC(=O)O)ccc32)CC(C)(C)C1 [Compound A1, 3-(2-{[4-(trifluoromethoxy)phenyl]amino}-1-[(1R,5R)-3,3,5-trimethylcyclohexyl]-1H-benzimidazol-5-yl)propanoic acid]
IC50 [1]: 100 nM
colony formation (IDH1 wildtype AML cells): not affected
anti-leukemic activity in PDX models of IDH1 mutant AML in vivo (human IDH1 mutated AML [2]): strong anti-leukemic activity
leukemia in week 20 (human IDH1 mutated AML [3]; Compound A1 alone, 8 weeks after stopping the treatment): relapsed
leukemic cells in peripheral blood (human IDH1 mutated AML [3]): declined

Nc1ncn([C@@H]2O[C@H](CO)[C@@H](O)[C@H]2O)c(=O)n1 [azacitidine, 5-azacytidine, reference compound]
leukemic cells in peripheral blood (human IDH1 mutated AML [3]): constantly increased
